The text below walks through data of paper PMC6811792, “The Binding Affinity of Small Molecules with Yam Tyrosinase (Catechol Oxidase): A Biophysical Study” (Biochemistry Research International, 2019).

In general, IC50 refers to the concentration needed to halve the response being measured. Lower therefore signals greater potency. As a reminder, the Kd is a measure of binding affinity in units of concentration.

Assay [1] deals with yam tyrosinase. Description: SPR interaction kinetics of single analytes with immobilized yam tyrosinase, two-state model. The assay is classed as binding, Amorphophallus paeoniifolius. The protocol: SPR interaction studies were carried out using a Biocore X100 optical biosensor (GE Healthcare Life Sciences, Uppsala, Sweden). All the SPR measurements were performed in phosphate buffer saline (PBS; 10.1 mM Na2PO4, 1.8 mM KH2PO4, 137 mM NaCl, 2.7 mM KCl, pH 7.4, 0.005% P20). Initially, working dilutions were prepared from the analyte stock solution in PBS only and then allowed to flow through the sensor surface. Biocore control software version 2.2 was used for data collection. Refractive index changes as a function of time under constant flow condition are monitored by the system, and accordingly, experiments were performed. […] There is an inline subtraction of reference surface during the run. This change is usually reported in terms of response units (RUs). The surface of the chip is washed with PBS (running buffer) between each concentration.
The method of amine coupling was employed for the immobilization of yam tyrosinase which was dissolved (50 μg/mL) in 0.1 M sodium acetate buffer with pH value 4.5 as per the pH scouting study in [15]. Yam tyrosinase was immobilized on sensor chip series S CM5. Flow cell on the chip surface was activated for 7 min using a 1 : 1 mixture of 100 mM […] (EDC) and 100 mM N-hydroxysuccinimide (NHS) (both dissolved in water), and subsequently, tyrosinase was injected for 7 min, followed by injection of 1 M ethanolamine, pH 8.5 to block nonreactive sites. For this study, flow cell 3 was blank immobilized (without protein) as reference.
Crocin and kojic acid are natural tyrosinase inhibitors, whereas hydroquinone is a synthetic inhibitor. The grouping of inhibitors was simply based on the efficiency, size, solubility, and origin of inhibitors. […] PBS was used as the running buffer. The flow rate was constant (45 μL/min) throughout the experiment. The contact time (association time) and dissociation time were fixed to 120 s. Experiments were performed with different concentrations of individual inhibitors based on their solubilities: crocin (0.156–2.5 mM), hydroquinone (0.625–10 mM), kojic acid ([…]), and L-DOPA (5–80 mM). These concentrations were optimized by repeating the SPR experiments several times to achieve appropriate binding interactions. […] Regeneration was carried out with 10 mM glycine pH 2.5 for 30 s. Binding analysis was evaluated using the heterogeneous analyte kinetics model. After each cycle of regeneration, the activity of the enzyme was checked by injecting a single concentration of L-DOPA, and RU response was observed. The data analyses were done with Biacore X100 evaluation software version 2.2, and data were fit to two-state binding and/or heterogeneous analyte binding.
Flow rate was maintained at 45 μL/min. Contact time and dissociation time were kept at 120 s and 200 s. Regeneration was carried out using 10 mM glycine HCl at pH 2.5 for 30 s and at 30 μL/min. The data analysis was performed with Biacore X100 evaluation software version 2.0.1, and data were fit to two states. Each concentration represents sensorgram in the increasing order of curves. Crocin with concentrations (0.156, 0.312, 0.625, 1.25, and 2.5 mM) was injected over the enzyme surface (a). Kojic acid with concentrations (0.0156, 0.0312, 0.0625, 0.125, and 0.25 mM) was injected over the enzyme surface (b). Hydroquinone with concentrations (0.625, 1.25, 2.5, 5.0, and 10 mM) was injected over enzyme surface (c). L-DOPA with concentrations (5, 10, 20, 40 and 80 mM) was injected over the enzyme surface (d).

Assay [2] concerns the target yam tyrosinase. Kind of assay: Diphenolase activity assay (dopachrome at 475 nm, L-DOPA substrate). It counts as biochemical, Amorphophallus paeoniifolius. To be noted: 2 mM L-DOPA, pH 7.0, 30°C. The protocol: The reaction mixture (3 mL) contained 2 mM of L-DOPA in 50 mM potassium phosphate buffer (pH 7.0); a portion of 100 μL of the enzyme was used for the activity assay. The reaction was carried out at a constant temperature of 30°C using a Shimadzu UV visible spectrophotometer. IC50 values were calculated as per the formula reported earlier.

Assay [3] addresses yam tyrosinase. Also noted: method as in PMID 29246874. To be noted: SPR, two-state model, substrate; cited from earlier work. Background: Surface plasmon resonance follows binding to a sensor surface in real time, without labels.

Read-outs that look alike come from different tables or passages of the source.

For the molecule `Oc1ccc(O)cc1` [Hydroquinone, hydroquinone], in the assay with yam tyrosinase [1] (PBS pH 7.4), the k a1 was 2.89 ± 0.13 M⁻¹ s⁻¹, the “k a2” value came to 0.001569 ± 3.5e-05 s⁻¹, the “k d1” value was 0.9166 ± 0.02 s⁻¹ and the “k d2” value came to 0.005185 ± 0.00013 s⁻¹. Further, the IC50 against yam tyrosinase [2] turned out to be 1.5 mM.
Take `N[C@@H](Cc1ccc(O)c(O)c1)C(=O)O` [L-DOPA, L-3 dihydroxyphenylalanine]: on yam tyrosinase [3], the Kd is 0.00135 mM, the “k a1” value was 9.54 × 10^4 1/ms, the “k a2” value is 0.001544 ± 1.50 × 10^4 1/s and the “k d1” value is 0.5089 ± 0.085 s⁻¹. Also, on yam tyrosinase [3], the “k d2” value is 0.000523 ± 8.4e-05 s⁻¹.
Take `CC(/C=C/C=C(\C)C(=O)O[C@@H]1O[C@H](CO[C@@H]2O[C@H](CO)[C@@H](O)[C@H](O)[C@H]2O)[C@@H](O)[C@H](O)[C@H]1O)=C\C=C\C=C(C)\C=C\C=C(/C)C(=O)O[C@@H]1O[C@H](CO[C@@H]2O[C@H](CO)[C@@H](O)[C@H](O)[C@H]2O)[C@@H](O)[C@H](O)[C@H]1O` [Crocin, crocin]: at yam tyrosinase [1] (PBS pH 7.4), binding was put at a Kd of 1.66 mM, the k a1 worked out at 224 ± 11 M⁻¹ s⁻¹, the “k a2” value came out at 0.003525 ± 9.7e-05 s⁻¹ and the “k d1” value was 0.5772 ± 0.025 s⁻¹. Besides, on yam tyrosinase [1] (PBS pH 7.4), the “k d2” value worked out at 0.006429 ± 0.00014 s⁻¹. Also, the affinity on yam tyrosinase [1] (PBS pH 7.4, listed as crocin), expressed as Kd, was 1.7 mM. In addition, at yam tyrosinase [2], the midpoint of inhibition, the IC50, lay at 1 mM.
For the molecule `O=c1cc(CO)occ1O` [Kojic acid], on yam tyrosinase [1] (PBS pH 7.4), the Kd was found to be 0.00639 mM, the k a1 came to 334 ± 16 M⁻¹ s⁻¹, the “k a2” value is 0.00539 ± 7.8e-05 s⁻¹ and the “k d1” value came out at 0.03182 ± 0.0013 s⁻¹. The molecule also showed an IC50 against yam tyrosinase [2] of 0.0001 mM.
